{"source": "patent US20240123036A1", "about": "“COMPOSITIONS AND METHODS FOR THE TREATMENT OF GRAFT VERSUS HOST DISEASE” (VectivBio AG, priority 2021, published 2024)", "key": {"[1]": {"tested_on": "blood cells of Balb/c mice", "experiment": "Melphalan-induced immunosuppression in Balb/c mice (Example 5, third experiment)", "format": "in vivo, mouse", "protocol": "In a third experiment, the effect of apraglutide on melphalan-induced immunosuppression was assessed (FIG. 13). Three groups of Balb/c mice were included: (A) vehicle; (B) melphalan on Day 9; (C) melphalan on Day 9, apraglutide pre-treatment on Days 1, 3, 5, 7 and continued as co-administration on Days 9, 11, and 13. WBC, NEU and LYMPH were assessed."}, "[2]": {"tested_on": "acute gastrointestinal GvHD in BALB/cJ male mice", "experiment": "Acute GvHD mouse model, 8.5 Gy irradiation plus allogeneic bone marrow/spleen cell transplant (Example 1, first experiment)", "format": "in vivo", "protocol": "Mouse #3 (Group A), #13 (Group B) and #20 (Group B) were administered the cells by subcutaneous injection rather than intravenously. Mouse #5 (Group B) and #10 (Group B) received half the cells by intravenous injection and half by subcutaneous injection.\nFollowing sacrifice of the mice, the colon lengths of the mice in Group A and Group B, as well as a control group of BALB/c mice (untreated), were measured. […] Thus, treatment with apraglutide protected the mice in Group A from a reduction in colon length, which is typically attributed to the inflammation caused by acute, gastrointestinal GvHD.\nVarious histological parameters of the jejunum were also measured, including single cell necrosis levels, necrosis of all crypts, shortening of villi, cryptal hyperplasia (regenerative), cell infiltrate, and cryptal abscess. These histological parameters were graded on a standard histological grading system (1 to 3). […] These indicate that the administration of apraglutide has a protective effective against jejunal mucosal damages induced by irradiation and GvHD."}, "[3]": {"tested_on": "acute gastrointestinal GvHD in BALB/cJ male mice", "experiment": "Acute GvHD mouse model, 7.0 Gy irradiation plus allogeneic transplant (Example 1, second experiment)", "format": "in vivo", "from_the_text": "FIG. 3a-3b is a series of graphs showing colon length and small intestine length in an acute GvHD mouse model following treatment with apraglutide. Data are shown as the mean ±SEM length of intestinal colon. N-5-10/group. Each dot represents data for one mouse.\nFIG. 14 is a series of graphs showing that treatment with apraglutide improves animal survival of TBI/BMT treated animals. Kaplan-Meier curves—Animal survival was monitored daily. N=10 at time=0 for each treatment group. […] When comparing to the control group, survival of TBI/BMT was significant different ### p=0.0007. BMT=b one marrow transplant; TBI=total body irradiation."}, "[4]": {"tested_on": "hPBMC engraftment in NOG mice", "experiment": "Engraftment of human PBMC in total-body-irradiated NOG mice (Example 2, first experiment)", "format": "in vivo, mouse", "protocol": "Engraftment rate was determined through CD45 expression in blood, bone marrow and spleen."}, "[5]": {"tested_on": "GvHD-induced intestinal damage in BALB/cJ mice", "experiment": "TBI-induced intestinal damage and allogeneic transplantation in BALB/cJ mice (Example 2, second experiment)", "format": "in vivo, mouse", "method": "Intestinal damage indicative of GvHD (histological changes, length, hemorrhage, inflammation), body weight, and survival were assessed."}, "[6]": {"tested_on": "chemotherapy-induced gastrointestinal damage in Balb/c mice", "experiment": "Chemotherapy-induced (cytarabine or melphalan) intestinal damage in Balb/c mice (Example 3)", "format": "in vivo, mouse", "protocol": "In a first experiment, 4 groups of Balb/c mice: (A) vehicle only; (B) cytarabine on Days 5-9, no apraglutide given; (C) cytarabine on Days 5-9; concomitant apraglutide on Days 5-18; (D) cytarabine on Days 5-9; pre-treatment apraglutide on Days 1, 3, and continued as concomitant treatment on Days 5, 8, 11, 14, and 17. Treatment groups were dosed with 30 mg/kg cytarabine and/or apraglutide 3.3 mg/kg.\nIn a second experiment, 3 treatment groups of Balb/c mice: (A) vehicle only; (B) melphalan on Day 9, no apraglutide; (C) melphalan on Day 9; pre-treatment apraglutide on Days 1, 3, 5, 7 and continued as concomitant treatment on Days 9, 11, and 13.\nIn both models, mice that received vehicle without any treatment served as controls. Intestinal tissue histology, body weight, survival, and plasma citrulline, a marker of total mucosal mass and intestinal growth, was assessed in both models."}, "[7]": {"tested_on": "blood cells of Balb/c mice", "experiment": "Cytarabine-induced immunosuppression, blood cell counts in Balb/c mice (Example 5, second experiment)", "format": "in vivo, mouse", "parameters": "reduction in lymphocytes / Red blood cells, percentage difference from control / Platelets, percentage difference from control / White blood cells, percentage difference from control / Lymphocytes, percentage difference from control / Neutrophils, percentage difference from control: concentration or dose not given beside the values", "protocol": "In a second experiment, apraglutide's effect on the ability of cytarabine to induce immunosuppression was assessed. The experiment included three groups of Balb/c mice: (A) vehicle; (B) cytarabine on Days 5-9; (C) cytarabine on Days 5-9, concomitant apraglutide on Days 5-18. RBC, platelets, WBC, NEU and LYMPH were assessed. A cohort was allowed to survive for 4 weeks to assess the effect of apraglutide on immunosuppression recovery (FIG. 12)."}, "[8]": {"tested_on": "cytarabine-induced damage in BALB/cJ female mice", "details": "for polymorphonuclear (PMN) cell count: cytarabine 30 mg/kg twice per day, alone or combined with hGLP-2 or apraglutide, FIG. 20", "method": "In a first experiment BALB/cJ female mice were separated into six groups for a dose-response study to assess the pharmacologic effect of increasing doses of apraglutide (0.11, 0.3 and 1.1 mg/kg) administered subcutaneously. Cytarabine was administered intraperitoneally at 30 mg/kg twice per day for 5 days (Day 0 to Day +4). Apraglutide was administered daily for a total of nine days, 4 days before and 5 days during the administration of chemotherapy (Day −4 to Day +4). Apraglutide effect was compared to unmodified hGLP-2 which was administered twice daily from Day −4 to Day +4, at a nominal dose of 0.60 mg/kg and combined with cytarabine."}, "[9]": {"tested_on": "fecal microbiota (Bacteroidetes, Firmicutes) of Balb/c mice", "details": "feces"}, "[10]": {"tested_on": "human leukemia cells (hCD45+) in NOD/SCID mice", "details": "Day 7; cytarabine Days 0-4; apraglutide or vehicle Days -4 to 4", "method": "In a first experiment, cytarabine' s anti-tumor effects were assessed in leukemic NOD/SCID mice (FIG. 11a). Apraglutide or vehicle was administered on Days -4 to 4. Cytarabine or vehicle was administered on Days 0-4. Bone marrow and spleen samples were collected on Day 7 and percentage of hCD45+ cells determined."}, "[11]": {"details": "melphalan on Day 9, with or without apraglutide"}, "[12]": {"details": "Day 18 (post-treatment), cytarabine 30 mg/kg Days 5-9, apraglutide 3.3 mg/kg Days 1-18"}}, "note": "Read-outs that look alike come from different tables or passages of the source. Square brackets hold non-standard residues; d marks the D form. Peptide text beside a SMILES is read from it. ξ: configuration not given here. Ile(3ξ) = CCC(C)[C@H](N)C(=O)O; Thr(3ξ) = CC(O)[C@H](N)C(=O)O; Nle = CCCC[C@H](N)C(=O)O"}
{"smiles": "N[C@@H](Cc1ccc(N(CCCl)CCCl)cc1)C(=O)O", "note": "[melphalan, Melphalan]", "values": [{"measurement": "LYMPH vs vehicle", "setting": "[1]; [11]", "value": "severe decreases"}, {"measurement": "WBC vs vehicle", "setting": "[1]; [11]", "value": "severe decreases"}]}
{"smiles": "CCCC[C@H](NC(=O)[C@H](CCC(=O)O)NC(=O)[C@H](CC(=O)O)NC(=O)[C@H](CO)NC(=O)[C@H](Cc1ccccc1)NC(=O)[C@H](CO)NC(=O)CNC(=O)[C@H](CC(=O)O)NC(=O)CNC(=O)[C@@H](N)Cc1c[nH]cn1)C(=O)N[C@H](Cc1ccccc1)C(=O)N[C@H](C(=O)N[C@H](C(=O)N[C@@H](CC(C)C)C(=O)N[C@@H](CC(=O)O)C(=O)N[C@@H](CC(C)C)C(=O)N[C@@H](CC(C)C)C(=O)N[C@@H](C)C(=O)N[C@@H](C)C(=O)N[C@@H](CCCNC(=N)N)C(=O)N[C@@H](CC(=O)O)C(=O)N[C@@H](Cc1ccccc1)C(=O)N[C@H](C(=O)N[C@@H](CC(N)=O)C(=O)N[C@@H](Cc1c[nH]c2ccccc12)C(=O)N[C@@H](CC(C)C)C(=O)N[C@H](C(=O)N[C@@H](CCC(N)=O)C(=O)N[C@H](C(=O)N[C@@H](CCCCN)C(=O)N[C@H](C(=O)N[C@H](C(=O)N[C@@H](CC(=O)O)C(N)=O)C(C)O)C(C)CC)C(C)O)C(C)CC)C(C)CC)C(C)CC)C(C)O", "note": "(stereo partly drawn) [apraglutide] (H-HGDGSFSDE[Nle][dF][Thr(3ξ)][Ile(3ξ)]LDLLAARDF[Ile(3ξ)]NWL[Ile(3ξ)]Q[Thr(3ξ)]K[Ile(3ξ)][Thr(3ξ)]D-NH2)", "values": [{"measurement": "colon length", "setting": "[2]; apraglutide 3 mg/kg s.c. every second day Day -9 to +7, 8.5 Gy, vs vehicle group and untreated control mice, FIG. 1", "value": "increased colon lengths that were nearly the same as the control mice"}, {"measurement": "overall mean severity score of mucosal degenerative/inflammatory changes in the jejunum", "setting": "[2]; apraglutide 3 mg/kg s.c., compared with vehicle, histological grading 1 to 3", "value": "slightly decreased"}, {"measurement": "mean severity score of the regenerative cryptal hyperplasia", "setting": "[2]; jejunum, apraglutide 3 mg/kg s.c., compared with vehicle", "value": "slightly increased"}, {"measurement": "body weight of mice surviving beyond Day 9", "setting": "[3]; Group A (apraglutide)", "value": "regained body weight"}, {"measurement": "weight loss", "setting": "[3]; Group A (apraglutide) vs Group B (vehicle)", "value": "No significant difference"}, {"measurement": "length of the small intestine", "setting": "[3]; across the three Groups, FIG. 3", "value": "no differences were observed"}, {"measurement": "median survival", "setting": "[3]; apraglutide 3 mg/kg s.c. every second day Day -9 to +7, 7.0 Gy + transplant", "value": 9, "unit": "days"}, {"measurement": "mice survived past Day 9", "setting": "[3]; apraglutide 3 mg/kg s.c., 7.0 Gy + transplant", "value": 40, "unit": "%"}, {"measurement": "animal survival (Kaplan-Meier, log-rank test)", "setting": "[3]; apraglutide initiated before TBI/BMT, FIG. 14, p<0.03", "value": "significant difference relative to TBI/BMT animals"}, {"measurement": "mice showing an intestinal pathological score of 0", "setting": "[3]; macroscopic score 0 least severe to 4 most severe, Group A", "value": "four out of out of ten"}, {"measurement": "engraftment rate in blood, spleen and bone marrow", "setting": "[4]; apraglutide 3.3 mg/kg Days -6 to 18, CD45 expression", "value": "not affected"}, {"measurement": "hCD45+ cells infiltration in the intestinal wall", "setting": "[4]; apraglutide vs vehicle", "value": "no difference"}, {"measurement": "engraftment rate in blood", "setting": "[4]; at D20 in blood, range", "value": "22.2-47.6%"}, {"measurement": "lymphocyte engraftment", "setting": "[5]; apraglutide 3.3 mg/kg Days -9 to +7", "value": "successfully achieved"}, {"measurement": "mean colon length", "setting": "[5]; apraglutide 3.3 mg/kg, TBI + allogeneic transplantation", "value": "8.6±0.35", "unit": "cm"}, {"measurement": "mucosal degenerative/inflammatory changes (post-mortem histological examination)", "setting": "[5]; apraglutide vs vehicle", "value": "less"}, {"measurement": "overall survival", "setting": "[5]; on Day +9, p=0.0134 vs vehicle", "value": 40, "unit": "%"}, {"measurement": "chemotherapy-induced weight loss", "setting": "[6]; FIG. 8", "value": "attenuated"}, {"measurement": "degenerative intestinal changes (villi and crypt atrophy) caused by cytarabine or melphalan", "setting": "[6]; apraglutide 3.3 mg/kg co-administration, histology", "value": "reduced"}, {"measurement": "overall survival", "setting": "[6]; vs vehicle-only or chemotherapy-only groups, FIG. 9", "value": "improved"}, {"measurement": "weight of duodenum, ileum and jejunum", "setting": "[6]; with apraglutide", "value": "increased in weight"}, {"measurement": "recovery of hematological parameters", "setting": "[7]; 4 weeks after the end of treatment", "value": "did not impact"}, {"measurement": "impact on cytarabine- or melphalan-induced immunosuppression", "setting": "[1]; combination with apraglutide", "value": "no negative impact"}, {"measurement": "animal survival", "setting": "[8]; apraglutide 0.11 mg/kg s.c. daily Day -4 to +4 with cytarabine 30 mg/kg i.p. twice per day Day 0 to +4", "value": "11/16"}, {"measurement": "citrulline concentrations", "setting": "[8]; apraglutide 0.33 mg/kg and 1.1 mg/kg co-administered with cytarabine, compared to cytarabine alone, FIG. 19", "value": "improvement"}, {"measurement": "animal survival", "setting": "[8]; apraglutide 0.33 mg/kg s.c. daily Day -4 to +4 with cytarabine 30 mg/kg i.p. twice per day Day 0 to +4", "value": "14/16"}, {"measurement": "animal survival", "setting": "[8]; apraglutide 1.1 mg/kg s.c. daily Day -4 to +4 with cytarabine 30 mg/kg i.p. twice per day Day 0 to +4", "value": "16/16"}, {"measurement": "initial weight loss", "setting": "[8]; combination with cytarabine, apraglutide 0.11 mg/kg, hGLP-2 0.60 mg/kg twice daily", "value": "did not decrease"}, {"measurement": "body weight and survival in animals recovering from cytarabine treatment", "setting": "[8]; combination with cytarabine, apraglutide 0.11 mg/kg, hGLP-2 0.60 mg/kg twice daily, FIG. 18", "value": "a trend towards increased body weight and survival"}, {"measurement": "polymorphonuclear (PMN) cell count", "setting": "[8]", "value": "not reversed"}]}
{"smiles": "Nc1ccn([C@@H]2O[C@H](CO)[C@@H](O)[C@@H]2O)c(=O)n1", "note": "[Cytarabine only, Cytarabine]", "values": [{"measurement": "Lymphocytes, percentage difference from control", "setting": "[7]; at treatment end", "value": "−91", "unit": "%"}, {"measurement": "Neutrophils, percentage difference from control", "setting": "[7]; at treatment end", "value": "−82", "unit": "%"}, {"measurement": "Platelets, percentage difference from control", "setting": "[7]; at treatment end", "value": "−68", "unit": "%"}, {"measurement": "Red blood cells, percentage difference from control", "setting": "[7]; at treatment end", "value": "−23", "unit": "%"}, {"measurement": "White blood cells, percentage difference from control", "setting": "[7]; at treatment end", "value": "−89", "unit": "%"}, {"measurement": "reduction in lymphocytes", "setting": "[7]; end of the treatment period", "value": 91, "unit": "%"}, {"measurement": "Mean % of taxa at the Phylum level, Bacteroidetes, Day 0", "setting": "[9]; Day 0 (pre-treatment)", "value": 16.3, "unit": "%"}, {"measurement": "Mean % of taxa at the Phylum level, Firmicutes, Day 0", "setting": "[9]; Day 0 (pre-treatment)", "value": 78.7, "unit": "%"}, {"measurement": "Mean % of taxa at the Phylum level, Bacteroidetes, Day 18", "setting": "[9]; [12]", "value": 48.7, "unit": "%"}, {"measurement": "Mean % of taxa at the Phylum level, Firmicutes, Day 18", "setting": "[9]; [12]", "value": 49.5, "unit": "%"}, {"measurement": "percentage of hCD45 in bone marrow after chemotherapy", "setting": "[10]", "value": "35.5±4", "unit": "%"}, {"measurement": "polymorphonuclear (PMN) cell count", "setting": "[8]", "value": "depleted"}]}
